Reference: paper PMC9322451 (Clinical Pharmacology in Drug Development, 2022)
Like-named read-outs stand apart in the source and are kept apart here.

Experiment: Phase 1 part A: PK after single and multiple once-daily oral doses
Type: in vivo, human
Settings: for Dose-normalized AUClast / Dose-normalized AUCτ / Dose-normalized AUC∞ / Dose-normalized Cmax: geometric least squares mean; for concentration at 30 day / Tmax / half-life / AUC / AUC(0-inf) / AUC(0-t) / Cmax: human, plasma
Protocol: The study was conducted sequentially in 2 parts. […] Eligible participants were admitted to the clinical unit for single‐dose evaluation from days −2 to 2 and from days 29 to 31 for steady‐state PK and safety evaluation. Participants self‐administered daily doses after an overnight fast of at least 10 hours on days 4 to 30, with outpatient visits on days 3, 4, 7, 14, 21, 32, 33, and 61 (Figure S1).
For part A, blood samples for PK assessments were collected following administration on days 1 and 30 at 0 (predose), 0.5, 0.75, 1, 1.5, 2, 3, 4, 8, 12, 24, 48, and 72 hours after dosing. In addition, predose PK samples were collected on days 4, 7, 14, and 21. PK parameters following single and multiple once‐daily dosing were evaluated using noncompartmental analysis, including the AUC over a dosing interval (AUCτ), AUC from time 0 to the last time with quantifiable concentration (AUClast), AUC from time 0 to infinite time (AUC∞), maximum plasma concentration (Cmax), minimum plasma concentration, time to maximum plasma concentration (tmax), terminal elimination half‐life (t1/2), apparent total drug clearance following oral administration (CL/F), and predose concentration.
All statistical analyses were performed using SAS version 9.3 or higher (SAS Institute Inc., Cary, North Carolina). Analysis of PK data was performed using WinNonlin Professional Software version 8.0 or higher (Certara, LP, Princeton, New Jersey). […] Categorical data were summarized by race and treatment group in terms of number of participants with data at relevant time points, frequency counts, and percentages. PK concentrations below the limit of quantification (BLQ) at time 0 on days 1 and 30 were considered 0. Postdose BLQ data were considered missing for PK parameter calculation. For mean concentrations and graphic presentation, all BLQ data were imputed as 0.

[1] = Multiple dosing (Day 30), Japanese n = 23, 3 dose groups pooled
[2] = Multiple dosing (Day 30), White n = 24, 3 dose groups pooled
[3] = Single dose (Day 1), Japanese n = 25, 3 dose groups pooled
[4] = Single dose (Day 1), White n = 24, 3 dose groups pooled
[5] = po, 10 mg, Day 1, 10 mg, Japanese, mean (CV%)
[6] = po, 10 mg, Day 1, 10 mg, White, mean (CV%)
[7] = po, 10 mg, Day 30, 10 mg once daily, Japanese, mean (CV%)

With Cn1c(=O)oc2ccc(-c3ccc(C[C@@H](C#N)NC(=O)[C@@H]4CNCCCO4)cc3)cc21 [Brensocatib] the “Mean steady‐state CL/F” value (10 mg, Japanese) was 10.1 L/h, the “Mean steady‐state CL/F” value (10 mg, White) was 8.5 L/h and the “Mean steady‐state CL/F” value (25 mg, Japanese) was 6.4 L/h. For the same molecule, the “Mean steady‐state CL/F” value (25 mg, White) was 7.0 L/h, the “Mean steady‐state CL/F” value (40 mg, White) was 6.5 L/h and the Ctrough (Day 30, 10 mg once daily, Japanese, mean (CV%)) was 15.64 (48.2) ng/mL. For the same molecule, the Ctrough (Day 30, 10 mg once daily, White, mean (CV%)) was 31.65 (52.6) ng/mL, the Ctrough (Day 30, 25 mg once daily, Japanese, mean (CV%)) was 93.05 (72.3) ng/mL and the Ctrough (Day 30, 25 mg once daily, White, mean (CV%)) was 83.24 (48.2) ng/mL. For the same molecule, the Ctrough (Day 30, 40 mg once daily, Japanese, mean (CV%)) was 81.86 (101.6) ng/mL, the Ctrough (Day 30, 40 mg once daily, White, mean (CV%)) was 92.95 (90) ng/mL and the “Dose-normalized AUClast” value [1] was 172.9 (ng ‧ h/mL)/mg. The “Dose-normalized AUCτ” value [1] was 107.6 (ng ‧ h/mL)/mg, the “Dose-normalized AUC∞” value [1] was 194.9 (ng ‧ h/mL)/mg and the “Dose-normalized Cmax” value [1] was 8.5 (ng/mL)/mg. For the same molecule, the “Dose-normalized AUClast” value [2] was 243.8 (ng ‧ h/mL)/mg, the “Dose-normalized AUCτ” value [2] was 144.8 (ng ‧ h/mL)/mg and the “Dose-normalized AUC∞” value [2] was 285.4 (ng ‧ h/mL)/mg. The “Dose-normalized Cmax” value [2] was 10.6 (ng/mL)/mg, the “Dose-normalized AUClast” value [3] was 94.0 (ng ‧ h/mL)/mg and the “Dose-normalized AUCτ” value [3] was 62.5 (ng ‧ h/mL)/mg. For the same molecule, the “Dose-normalized AUC∞” value [3] was 103.9 (ng ‧ h/mL)/mg, the “Dose-normalized Cmax” value [3] was 6.1 (ng/mL)/mg and the “Dose-normalized AUClast” value [4] was 118.8 (ng ‧ h/mL)/mg. For the same molecule, the “Dose-normalized AUCτ” value [4] was 75.4 (ng ‧ h/mL)/mg, the “Dose-normalized AUC∞” value [4] was 133.9 (ng ‧ h/mL)/mg and the “Dose-normalized Cmax” value [4] was 6.9 (ng/mL)/mg. The concentration at 30 day (oral, 10 mg, Day 30, 10 mg once daily, Japanese, mean (CV%), read-out: Cavg) was 0.0438 µg/mL, the concentration at 30 day (oral, 10 mg, Day 30, 10 mg once daily, Japanese, mean (CV%), read-out: Cmin) was 0.0196 µg/mL and the concentration at 30 day (oral, 10 mg, Day 30, 10 mg once daily, White, mean (CV%), read-out: Cavg) was 0.0494 µg/mL. For the same molecule, the concentration at 30 day (oral, 10 mg, Day 30, 10 mg once daily, White, mean (CV%), read-out: Cmin) was 0.0263 µg/mL, the concentration at 30 day (oral, 25 mg, Day 30, 25 mg once daily, Japanese, mean (CV%), read-out: Cavg) was 0.174 µg/mL and the concentration at 30 day (oral, 25 mg, Day 30, 25 mg once daily, Japanese, mean (CV%), read-out: Cmin) was 0.0988 µg/mL. For the same molecule, the concentration at 30 day (oral, 25 mg, Day 30, 25 mg once daily, White, mean (CV%), read-out: Cavg) was 0.161 µg/mL, the concentration at 30 day (oral, 25 mg, Day 30, 25 mg once daily, White, mean (CV%), read-out: Cmin) was 0.0939 µg/mL and the concentration at 30 day (oral, 40 mg, Day 30, 40 mg once daily, Japanese, mean (CV%), read-out: Cavg) was 0.167 µg/mL. For the same molecule, the concentration at 30 day (oral, 40 mg, Day 30, 40 mg once daily, Japanese, mean (CV%), read-out: Cmin) was 0.0775 µg/mL, the concentration at 30 day (oral, 40 mg, Day 30, 40 mg once daily, White, mean (CV%), read-out: Cavg) was 0.269 µg/mL and the concentration at 30 day (oral, 40 mg, Day 30, 40 mg once daily, White, mean (CV%), read-out: Cmin) was 0.149 µg/mL. The Tmax (oral, once‐daily administration, steady state, range over groups, read-out: Tmax) was 1 to 1.8 h, the half-life (oral, once‐daily administration, steady state, range over groups, read-out: elimination t1/2) was 21.7 to 27.6 h and the half-life (oral, range over groups (abstract), read-out: Elimination half‐life) was 22 to 28 h. The half-life (oral, single dose, Japanese participants, range over dose groups, read-out: Elimination t1/2) was 18.4 to 22.4 h, the half-life (oral, single dose, White participants, range over dose groups, read-out: Elimination t1/2) was 21.5 to 24.5 h and the Tmax (oral, single‐dose administration, range over groups, read-out: median tmax) was 1 to 1.5 h. It also gave a half-life (oral, steady state, Japanese participants, across the 3 dose groups, read-out: mean t1/2) of 21.7 to 23.1 h, a half-life (oral, steady state, White participants, across the 3 dose groups, read-out: mean t1/2) of 22.9 to 27.6 h and an AUC [5] of 0.628 µg·h/mL. The AUC(0-inf) [5] was 1.03 µg·h/mL, the AUC(0-t) [5] was 0.943 µg·h/mL and the Cmax [5] was 0.0645 µg/mL. The half-life (po, 10 mg, Day 1, 10 mg, Japanese, mean (CV%), read-out: t1/2 (converted)) was 18.8 h, the Tmax (po, 10 mg, Day 1, 10 mg, Japanese, median (range), read-out: Tmax) was 1.02 h and the AUC [6] was 0.62 µg·h/mL. It also gave an AUC(0-inf) [6] of 1.14 µg·h/mL, an AUC(0-t) [6] of 0.988 µg·h/mL and a Cmax [6] of 0.0559 µg/mL. The half-life (po, 10 mg, Day 1, 10 mg, White, mean (CV%), read-out: t1/2 (converted)) was 25.7 h, the Tmax (po, 10 mg, Day 1, 10 mg, White, median (range), read-out: Tmax) was 1.01 h and the AUC [7] was 1.05 µg·h/mL. It also gave an AUC(0-inf) [7] of 1.99 µg·h/mL, an AUC(0-t) [7] of 1.73 µg·h/mL and a Cmax [7] of 0.0805 µg/mL.
